Test results: patent publication US20190336537A1, “GENERATING ATRIAL AND VENTRICULAR CARDIOMYOCYTE LINEAGES FROM HUMAN PLURIPOTENT STEM CELLS” (UNIVERSITY HEALTH NETWORK, priority 2016, published 2019)

Columns and labels:
[1] = test system: HES3 NKX2-5:GFP reporter hESC line derived cardiomyocytes; test: qRT-PCR analysis of atrial and ventricular gene expression in day 20 hPSC-derived cardiomyocytes; format: cell-based, human; conditions: receptor-specific agonist added in place of RA to day 3 cultures
[2] = test system: HES2 human embryonic stem cell derived EBs; test: ROH/RA response of HES2-derived EBs (day 20 flow cytometry and qRT-PCR); format: cell-based; conditions: treated days 3 to 5
Text: (§1) To determine if the approach for optimizing atrial and ventricular differentiation based on ALDH activity and CD235a expression is broadly applicable, we next used it to generate these cardiomyocyte populations from the HES2 human embryonic stem cell and the MSC-iPS1 induced pluripotent stem cell lines. Titration studies identified 5B/2A and 5B/6A as optimal for atrial and ventricular inductions, respectively, for HES2 cells and 4B/4A as optimal for ventricular induction for MSCiPSC1 cells (FIGS. 7A, 7B, 7E, and 7F; Mendeley http://dx.doi.org/10.17632/7z7d5v2c3w.1). Optimization of atrial induction from the MSC-iPSC1 cells was more challenging, as all cytokine combinations promoted the development of a substantial CD235a+ population. One interpretation of these patterns is that the MSC-iPS1 cells have a high level of endogenous Nodal/Activin A signaling, resulting in the development of some CD235a+ cells under all conditions. To test this, we added the Nodal/Activin A/transforming growth factor beta (TGF-beta) inhibitor SB-431542 (SB) from days 3 to 5 to cells induced with 4B/1A.
(§2) For cardiac differentiation, we used a modified version of our embryoid body (EB)-based protocol (Kattman et al., 2011). hPSC populations at 80%-90% confluence were dissociated into single cells (TrypLE, ThermoFisher) and re-aggregated to form EBs in StemPro-34 media (ThermoFisher) containing penicillin/streptomycin (1%, ThermoFisher), L-glutamine (2 mM, ThermoFisher), trans-ferrin (150 μg/ml, ROCHE), ascorbic acid (50 μg/ml, Sigma), and monothioglycerol (50 μg/ml, Sigma), ROCK inhibitor Y-27632 (10 μM, TOCRIS) and rhBMP4 (1 ng/ml, R&D) for 18 h on an orbital shaker. At day 1, the EBs were transferred to mesoderm induction media consisting of StemPro-34 with above supplements (-ROCK inhibitor Y-27632) and rhBMP4, rhActivinA (R&D) and rhbFGF (5 ng/ml, R&D) at the indicated concentrations. At day 3, the EBs were harvested, washed with IMDM and transferred to cardiac mesoderm specification media consisting of StemPro-34, the Wnt inhibitor IWP2 (1 μM, TOCRIS) and rhVEGF (10 ng/mL, R&D). At day 5, the EBs were transferred to Stem Pro-34 with rhVEGF (5 ng/ml) for another 7 days and then to Stem Pro-34 media without additional cytokines for further 8 days. At day 20, HES3-NKX2-5gfp/w-derived cardiomyocytes were analyzed and isolated based on the expression of NKX2-5:GFP and SIRPa and a lack of CD90. Cardiomyocytes generated from non-transgenic hPSC lines were analyzed and isolated as SIRPa+CD90− populations. Media was changed every 3 days. Cultures were incubated in a low oxygen environment (5% CO2, 5% O2, 90% N2) for first 12 days and a normoxic environment (5% CO2) for the following 8 days in total of 20 days. […]

[3] = test system: HES3 NKX2-5:GFP hESC-derived mesoderm; test: Specification of mesoderm populations to an atrial fate by ROH or RA (day 20 flow cytometry and qRT-PCR); format: cell-based, human; conditions: day 4, 5B/4A induced
[4] = test system: HES3 NKX2-5:GFP hESC-derived mesoderm; test: as above; format: cell-based, human; conditions: for atrial specification (MLC2V+, IRX4, KCNJ3, NR2F2): treated days 3-5
Description: To determine if the ALDH^+ cells can synthesize RA, the ALDH^+PDGFRalpha^+ and ALDH^− PDGFRalpha^+ fractions were isolated from the day 4 3B/2A-induced population, and the cells were cultured as aggregates in retinol (ROH), RA, or DMSO (control) for 24 hr (FIGS. 3A and 3B). ALDH1A2 expression segregated to the ALDH^+ fraction, confirming the validity of aldefluor-based sorting strategy for isolating RALDH2-expressing cells (FIG. 3C).
(§3) For cardiac differentiation, we used a modified version of our embryoid body (EB)-based protocol (Kattman et al., 2011). hPSC populations at 80%-90% confluence were dissociated into single cells (TrypLE, ThermoFisher) and re-aggregated to form EBs in StemPro-34 media (ThermoFisher) containing penicillin/streptomycin (1%, ThermoFisher), L-glutamine (2 mM, ThermoFisher), trans-ferrin (150 μg/ml, ROCHE), ascorbic acid (50 μg/ml, Sigma), and monothioglycerol (50 μg/ml, Sigma), ROCK inhibitor Y-27632 (10 μM, TOCRIS) and rhBMP4 (1 ng/ml, R&D) for 18 h on an orbital shaker. At day 1, the EBs were transferred to mesoderm induction media consisting of StemPro-34 with above supplements (-ROCK inhibitor Y-27632) and rhBMP4, rhActivinA (R&D) and rhbFGF (5 ng/ml, R&D) at the indicated concentrations. At day 3, the EBs were harvested, washed with IMDM and transferred to cardiac mesoderm specification media consisting of StemPro-34, the Wnt inhibitor IWP2 (1 μM, TOCRIS) and rhVEGF (10 ng/mL, R&D). At day 5, the EBs were transferred to Stem Pro-34 with rhVEGF (5 ng/ml) for another 7 days and then to Stem Pro-34 media without additional cytokines for further 8 days. At day 20, HES3-NKX2-5gfp/w-derived cardiomyocytes were analyzed and isolated based on the expression of NKX2-5:GFP and SIRPa and a lack of CD90. Cardiomyocytes generated from non-transgenic hPSC lines were analyzed and isolated as SIRPa+CD90− populations. Media was changed every 3 days. Cultures were incubated in a low oxygen environment (5% CO2, 5% O2, 90% N2) for first 12 days and a normoxic environment (5% CO2) for the following 8 days in total of 20 days. The EBs were cultured in ultra-low attachment 6-well dishes (Corning) throughout the differentiation for maintaining suspension cultures.
Following optimization, either ATRA (0.5 μM, Sigma) or retinol (2 μM, Sigma) was included in the cardiac mesoderm specification media from days 3-5 for the generation of atrial cardiomyocytes.
(§4) Day 2-6 EBs were dissociated with TrypLE for 2-4 min at room temperature (RT). Day 20 EBs were dissociated by incubation in Collagenase type 2 (0.5 mg/ml, Worthington) in HANKs buffer overnight at RT followed by TrypLE treatment as described above. The following antibodies were used for staining: anti-PDGFRa-PE (R&D Systems, 3:50), anti-CD235a-APC (BD PharMingen, 1:100), antiSIRPa-PeCy7 (Biolegend, 1:1000), anti-CD90-APC (BD PharMingen, 1:1000), anticardiac isoform of CTNT (ThermoFisher Scientific, 1:2000), or anti-myosin light chain 2 (Abcam, 1:1000). For unconjugated primary antibodies, the following secondary antibodies were used for detection: goat anti-mouse IgG-APC (BD Pharmigen, 1:250), or donkey anti-rabbit IgG-PE (Jackson ImmunoResearch, 1:250). Detailed antibody information is described in Table 2.
The Aldefluor™ assay (STEMCELL Technologies) was performed according to the instruction provided by the manufacturer. Briefly, day 2-6 EBs were dissociated as described above. […] Stained cells were analyzed as described above. […]

[5] = test system: MSC-iPS1 induced pluripotent stem cell line derived EBs; test: ROH/RA response of MSC-iPS1-derived EBs (day 20 flow cytometry and qRT-PCR); format: cell-based, human; conditions: treated days 3 to 5
Text: as §1, §2

[6] = test system: MSC-iPS1 induced pluripotent stem cell line derived EBs; test: Flow cytometry of ALDH activity and CD235a in MSC-iPS1-derived EBs treated with SB-431542; format: cell-based, human; conditions: SB days 3 to 5, cells induced with 4B/1A
Text: as §1, §4
The Aldefluor™ assay (STEMCELL Technologies) was performed according to the instruction provided by the manufacturer. […] Stained cells were analyzed as described above. […]

[7] = test system: hPSC-derived day 2-6 EB mesoderm; test: Aldefluor assay and flow cytometry of mesoderm (ALDH activity, PDGFRalpha, CD235a); format: cell-based, human
Description: as §4
The Aldefluor™ assay (STEMCELL Technologies) was performed according to the instruction provided by the manufacturer. Briefly, day 2-6 EBs were dissociated as described above. Cells were stained at a concentration of 2×10^6 cells/ml in the aldefluor assay buffer containing 0.1% BSA and BAAA substrate (0.12 mg/ml) for 60 min at 37 degrees C. The aldehyde dehydrogenase inhibitor DEAB ([…]) was added to the negative control sample. Cells were washed with cold media consisting of IMDM with 5% FCS and 10% aldefluor assay buffer. Cells were then stained with antibodies to cell surface markers at the concentrations indicated above in cold wash media for additional 20 min at 4 degrees C. Stained cells were analyzed as described above. During analyses, the cells were kept in cold wash media. For cell sorting, FCS was replaced with KnockOut™ serum replacement (ThermoFisher) to avoid any impact of serum-contained cy-tokines on the cell differentiations. Cells were maintained in StemPro-34 containing 10% aldefluor assay buffer throughout the sorting procedure. The sorted cells were collected and re-aggregated in StemPro-34 containing ROCK inhibitor (10 μM), IWP2 (0.5 μM) and rhVEGF (5 ng/ml).

[8] = test system: HES3 NKX2-5:GFP hESC-derived day 20 EB populations; test: Flow cytometric and immunostaining analyses of day 20 EB populations (CTNT, MLC2V, NKX2-5, COUPTFII); format: cell-based, human
Description: as §3, §4
For cell-surface marker analyses, cells were stained for 30 min at 4 degrees C. in FACS buffer consisting of PBS with 5% fetal calf serum (FCS) (Wisent) and 0.02% sodium azide. For intracellular staining, cells were fixed for 15 min at 4 degrees C. with 4% PFA in PBS followed by permeabilization using 90% methanol for 20 min at 4 degrees C. Cells were washed with PBS containing 0.5% BSA (Sigma) and stained with unconjugated primary antibodies in FACS buffer overnight at 4 degrees C. Stained cells were washed with PBS with 0.5% BSA and stained with secondary antibodies in FACS buffer for 1 h at 4 degrees C.
Stained cells were analyzed using the LSR II Flow cytometer (BD). For cell sorting, stained cells were kept in IMDM with 0.5% FCS and sorted using Influx (BD), FACSAriall (BD), MoFlo-XDP (BD) and FACSAria Fusion (BD) at the Sickids/UHN flow cytometry facility. Data were analyzed using FlowJo software (Tree Star).
Day 20 EBs were dissociated as described above and the cells plated onto 12 mm cover glasses (VWR) pre-coated with matrigel (25% v/v, BD). Cells were cultured for 3-5 days to enable the formation of adherent cell monolayers. Cells were fixed with
4% PFA in PBS for 10 min at room temperature and permeabilized with PBS containing 0.3% TritonX, 200 mM Glycine (Sigma) for 20 min at RT. Cells were blocked with PBS containing 10% FCS, 0.1% TritonX, and 2% BSA. […]

[9] = reducing BMP4 from 10 to 3 ng/mL, Activin A 2 ng/mL
[10] = increasing Activin A from 2 to 12 ng/ml, BMP4 10 ng/mL
[11] = reducing Activin A, constant BMP4 (10 ng/mL)

CCCCCCCCc1ccc(-c2ccc(C(=O)O)cc2)cc1 [AC55649]
MYL2 expression in day 20 CTNT+ populations [1]: reduction

CC1(C)CCC(C)(C)c2cc(C(=O)Nc3ccc(C(=O)O)cc3)ccc21 [AM580]
MYL2 expression in day 20 CTNT+ populations [1]: reduction

O=C(O)c1ccc2cc(-c3ccc(O)c(C45CC6CC(CC(C6)C4)C5)c3)ccc2c1 [CD437]
MYL2 expression in day 20 CTNT+ populations [1]: reduction

CC1=C(/C=C/C(C)=C/C=C/C(C)=C/CO)C(C)(C)CCC1 [ROH, retinol]
response of ALDH+ mesoderm (atrial expression profile) ([2]; HES2, 5B/2A induced): responded to both ROH and RA | response of CD235a+ mesoderm (MLC2V content, MYL2, IRX4, KCNJ3, NR2F2) ([2]; HES2, 5B/6A induced): Neither CD235a+ mesoderm population responded | atrial specification (MLC2V+, IRX4, NPPA, KCNJ3, NR2F2) ([3]; CD235a+ALDH− fraction): no response | atrial specification (MLC2V+, IRX4, NPPA, KCNJ3, NR2F2) ([3]; CD235a−ALDH+ fraction): gave rise to an atrial-like cardio-myocyte population | atrial specification (MLC2V+, IRX4, KCNJ3, NR2F2) ([4]; 3B/2A-induced EBs): responded to ROH and generated an atrial-like cardiomyocyte population | atrial specification (MLC2V+, IRX4, KCNJ3, NR2F2) ([4]; 5B/12A-induced EBs): did not respond | atrial specification (MLC2V+ frequency, IRX4, KCNJ3) ([4]; ALDH+PDGFRalpha+ fraction, day 4, 3B/2A induced, 24 hr treatment): generated an atrial-like cardiomyocyte population | response of ALDH+ mesoderm (atrial expression profile) ([5]; MSC-iPS1, 4B/1A+SB induced): responded to both ROH and RA | response of CD235a+ mesoderm (MLC2V content, MYL2, IRX4, KCNJ3, NR2F2) ([5]; MSC-iPS1, 4B/4A induced): Neither CD235a+ mesoderm population responded

NC(=O)c1ccc(-c2nc(-c3ccc4c(c3)OCO4)c(-c3ccccn3)[nH]2)cc1 [SB-431542]
CD235a+ cells [6]: reduction | CTNT+MLC2V− cardiogenic potential of the mesoderm [6]: without affecting | size of the ALDH+ population [6]: increase in the size

B1: BMP4: Bone Morphogenetic Protein 4, recombinant human (R&D) (protein, UniProt P12644 293-408, looked up)
Bone morphogenetic protein 4: SPKHHSQRARKKNKNCRRHSLYVDFSDVGWNDWIVAPPGYQAFYCHGDCPFPLADHLNSTNHAIVQTLVNSVNSSIPKACCVPTELSAISMLYLDEYDKVVLKNYQEMVVEGCGCR
size of the CD235a+ population ([7]; BMP4 3-20 ng/mL, Activin A 12 ng/mL): little impact | size of the ALDH+PDGFRalpha+ population [7, 9]: did not influence | frequency of MLC2V+CTNT+ cells at day 20 ([8]; BMP4 20 ng/mL, Activin A 12 ng/mL): lowest frequency | frequency of CTNT+ cells at day 20 [8, 9]: increase the frequency

B2: Activin A: Recombinant human ActivinA (R&D), activates nodal signal transduction (protein, UniProt P08476 311-426, looked up)
Inhibin beta A chain: GLECDGKVNICCKKQFFVSFKDIGWNDWIIAPSGYHANYCEGECPSHIAGTSGSSLSFHSTVINHYRMRGHSPFANLKSCCVPTKLRPMSMLYYDDGQNIIKKDIQNMIVEECGCS
modifications: Inhibin beta A chain
ALDH+ population [7, 10]: elimination | size of the day 4 CD235a+ population [7, 10]: increase in the size | size of the ALDH+PDGFRalpha+ population at day 4 [7, 11]: substantial increase | proportion of MLC2V+CTNT+ cells [8, 10]: increase in the proportion | proportion of CTNT+ cardiomyocytes generated [8, 11]: decrease
